The results in this text go back to patent publication US11072587B2, “Administration of aurora kinase inhibitors for anti-malarial therapy” (University of Central Florida Research Foundation, Inc., priority 2017, dated 2021).

Experiment [1] relates to chloroquine-resistant P. falciparum Dd2. Description: SYBR Green I-based fluorescence assay, intraerythrocytic growth inhibition. The conditions noted are these: for IC50 / IC90: P. falciparum Dd2, 72 h. It is filed as cell-based, Plasmodium falciparum. The procedure:
Ten millimolar compound stocks in DMSO were diluted by ½, ⅕, and/or 1/10 fold dilutions in ultrapure water or RPMI 1640. Varying concentrations of compound were added to culture at a 1% parasitemia and 2% hematocrit in 96-well black plates. Assay conditions maintained maximum DMSO concentrations less than 0.125% per dilution. Positive (baseline 0% growth) controls consisted of Chloroquine at 1 μM final concentration. Following 72 h incubation at 37° C. in 5% CO2, dilution plates were frozen at −80° C. for a minimum of 30 minutes. Dilution plates were allowed to thaw followed by lysis treatment and SYBR Green I incorporation. DNA quantification was determined using a fluorescence reading on a Synergy H4 multimode plate reader set at 485 nm excitation and 530 nm emission as previously reported (Roberts, Iyamu et al. 2016). EC50 was calculated from a dose response curve that was generated from a concentration range of 0-10 μM using GraphPad Prism v5.0.
Different dilutions of the compound/fraction in 1 μl of the culture medium were added to 99 μl of P. falciparum culture at a 1% parasitemia and 2% hematocrit in 96-well plates. Maximum DMSO concentration in the culture never exceeded 0.125%. Chloroquine at 1 μM was used as a positive control to determine the baseline value. Following 72 hours incubation at 37° C., the plates were frozen at −80° C. After thawing, 100 μL of lysis buffer (with SYBR Green I dye 1:10,000) was added to each well and plates were incubated at room temperature for 30 minutes prior to reading.
80 compounds were screened for their ability to inhibit the intraerythrocytic growth of chloroquine-resistant P. falciparum Dd2 using a SYBR Green I-based fluorescence assay at 1 μM.
(§1) 7 hit compounds and 17 mammalian Aurora A and B inhibitors in clinical trial were screened by SYBR Green I-based fluorescence assay to determine IC50 values in chloroquine-resistant P. falciparum Dd2 and the cytotoxicity was evaluated in 3T3 Mouse fibroblast cells using MTS cytotoxicity assay. The results of the top 2 ASINEX library compounds and 3 commercially available mammalian Aurora A and B inhibitors are shown in Table 1 below with noted structures provided in FIG. 16.

Experiment [2] concerns 3T3 Mouse fibroblast cells. Put plainly: MTS cytotoxicity assay. It is filed as cell-based. The conditions noted are these: for Selectivity Index: 3T3 EC50 versus Dd2 IC50; for EC50 / EC90: cytotoxicity, 3T3 mouse fibroblast cells. As for the experimental part: The intraerythrocytic development of the malaria parasite diverges from the paradigm of eukaryotic cell cycle. Novelty of the Plasmodium cell cycle offers opportunities for development of therapeutics directed against essential components. […] Essential Plasmodium Aurora-related kinases (Arks) 1, 2, and 3 are homologous to Aurora A and B, Ser/Thr kinases involved in cell division. […] To discover potent and selective small molecule inhibitors of PfArks, screening was conducted of a library of optimized mammalian Aurora kinase inhibitors that have evolved from a general pharmacophore models for Ser/Thr kinases. In addition, we are also repurposing human Aurora kinase inhibitors to discover antimalarial lead compounds. Novel potent inhibitors (EC50<1 μM) were identified in cell-based screening using SYBR Green I fluorescence based assay. Selectivity of the hits against mammalian cells were determined using the MTS ((3-(4,5 dimethylthiazol-2-yl)-5-(3-carboxymethoxyphenyl)-2-(4-sulfophenyl)-2H-tetrazolium, inner salt) cell proliferation assay. Results from our studies to assess structure-activity-relationship, specificity of inhibition, and cellular effects of the compounds will be presented.
as §1

Experiment [3] relates to PfArk2. Description: γ-P32 ATP utilization kinase assay with MBP as substrate. In kind it is biochemical, Plasmodium falciparum. The following applies: GST-tagged PfArk2 2.5 μg, MBP 2.5 μg, autoradiogram (FIG. 17B). The procedure: GST-tagged PfArk2 was purified using affinity chromatography (FIG. 17A). Compounds were added to a standard kinase assay at indicated concentrations against PfArk-2 (2.5 μg) in a γ-P^32 ATP utilization assay with MBP (2.5 μg) as substrate (FIG. 17B). Upper panels show Coomassie Blue-stained gel and the lower panel is the corresponding autoradiogram.

Where [4] appears, read: P. falciparum Dd2, compound at 1 μM, 72 h.

Bounds are passed on as bounds.

One may read the IC50 as the point on the concentration scale where inhibition reaches its midpoint. A word on the IC90: it is the point of the concentration-response curve where the effect stands at 90%. A word on the EC50: it is the concentration giving half of the maximal effect. What is called EC90 is the concentration at which the effect reaches the 90% level. The low end stands for greater potency, the high end for weaker potency. On to BI-847325 [DC-0005156], for which, in experiment [1], the half-inhibitory concentration (IC50) came out at 530 nM and the concentration for an effect of 90% (IC90) amounted to 2000 nM. The “% inhibition (1 μM)” value in experiment [1] (setting [4]) was found to be 93%. Also, in experiment [2], the “Selectivity Index” value is reported as 2.5, the EC50 was 1310 nM and the concentration for an effect of 90% (EC90) was greater than 26700 nM.
The term inhibition denotes the percentage by which the read-out fell short of the control. With `CCn1cc(-c2ccnc3[nH]c(-c4cccc(CN(C)C)c4)cc23)c(-c2ccc(NC(=O)N(C)C)cc2)n1` [DC-0005154, GSK-1070916], in experiment [1] (Plasmodium falciparum), the half-inhibitory concentration (IC50) worked out at 441 nM and the concentration for an effect of 90% (IC90) is 1720 nM. Further, the inhibition at 1 µM in experiment [1] (Plasmodium falciparum, P. falciparum Dd2, compound at 1 μM, 72 h) turned out to be 87%. Moreover, in experiment [2], the “Selectivity Index” value is on record as 13.5, it took 5970 nM to reach a half-maximal effect (EC50) and the 90% effect level (EC90) was put at 15900 nM. Besides, in experiment [3], the “Inhibition of PfArk2 activity” value is “not particularly effective in inhibiting PfArk2 activity”.
For the compound `COc1cc2c(Nc3ccc(NC(=O)c4ccccc4)cc3)ncnc2cc1OCCCN1CCOCC1` [DC-0005146, ZM-447439], in experiment [1], the 50% inhibitory concentration (IC50) turned out to be 1020 nM and the IC90 was found to be 4320 nM. For the same compound, in experiment [1] (setting [4]), the “% inhibition (1 μM)” value was 75%. In experiment [2], the “Selectivity Index” value turned out to be 3.7, the EC50 stood at 3780 nM and the 90% effect level (EC90) was put at 11700 nM. Also, the “Inhibition of PfArk2 activity” value in experiment [3] is on record as “not particularly effective in inhibiting PfArk2 activity”.
